Series [1] relates to Rhizoctonia solani. Format: cell-based. Conditions: R. solani.
The subject of series [2] is Musca domestica. As to the kind of experiment: Topical test on houseflies (MD). The settings on record: for MD (LD50): houseflies, topical on thorax, kill assessed 24 and 48 h. The class given is in vivo. The method, then: (§1) Pesticidal activity was assessed against houseflies, mustard beetles, mites and whitefly using the following methods.
Houseflies (MD) (Musca domestica)
Female flies were treated on the thorax with a one microliter drop of test compound dissolved in acetone. Two replicates of 15 flies were used at each dose rate and 6 dose rates were used per compound under test. After treatment, the flies were maintained at a temperature of 20°±1° C. and kill was assessed 24 and 48 hours after treatment. LD50 values were calculated in micrograms of test compound per fly (see Sawicki et al., Bulletin of the World Health Organisation, 35, 893 (1966) and Sawicki et al., Entomologia and Exp. Appli 10, 253, (1967).
(§2) The values given are LD50 (μg/insect) or LC50 (ppm solution of test compound) unless otherwise specified.

The test system of series [3] is Phaedon cochleariae Fab. Description: Topical test on mustard beetles (PC). The class given is in vivo. Conditions: for PC (LD50): mustard beetles, topical, 48 h. The procedure:
as §1
Mustard beetles (PC) (Phaedon cochleariae Fab)
A one microliter drop of an acetone solution of the test compound was applied ventrally to adult mustard beetles using a micro drop applicator. The treated insects were maintained for 48 hours after which time kill was assessed. Two replicates each of 20 to 25 mustard beetles were used at each dose level and 5 dose levels were treated comparably. LD50 values were calculated as for houseflies.
as §2

The test system of series [4] is Tetranychus urticae. Description: Immersion test on mites (TU), susceptible strain GSS. The class given is in vivo. The settings on record: 72 h, read-out: TU (GSS) (LC50). The method, then: as §1
Mites (TU) (Tetranychus urticae)
25 adult female mites were immersed in 35 μl of a solution of the test compound in a 1:4 acetone-water mixture for 30 seconds. The treated insects were maintained at 21°±2° C. and kill was assessed 72 hours after treatment. […] Three replicates of 25 mites each were used at each dose rate and 5 or 6 dose rates were used per compound under test. LC50 values were calculated in ppm of the solution of the test compound per insect. The test was carried out using a susceptible strain of mites (GSS) supplied by Schering, AG, Berlin.
as §2

For series [5], the system named is Bemisia tabaci. As to the kind of experiment: Film/vial test on whitefly (BT), susceptible strain SUD-S. The class given is in vivo. The settings on record: 48 h, read-out: BT (SUD-S) (LC50). The procedure: as §1
Whitefly (BT) (Bemisia tabaci)
Acetone solutions (0.100 ml) of the test compounds were placed in 10 ml glass vials and evaporated with rotation to deposit a film of the compound. Thirty adult whiteflies were placed inside the vial, then after 60 minutes, the treated insects were transferred onto untreated cotton leaf discs which were kept moist on a bed of agar gel. The temperature was maintained at 25° C. and mortality assessed after 48 hours. Three replicates were used at each of 5 to 7 dose levels per compound. LC50 values were calculated by using a computer software package ("Polo-PC" available from LeOra Software, Berkeley, Calif.). (See M. R. Cahill and B. Hackett in Proceedings Brighton Crop Protection Conference, 1992). The test was carried out using a susceptible strain of whitefly (SUD-S) which was collected in Sudan in 1978 from cotton.
as §2

In series [6] the test system is Myzus persicae. Description: Aphicidal activity, topical application. The class given is in vivo. The settings on record: 100 ppm, 72 h. The procedure:
(§3) Activity against resistant (R) and susceptible (S) strains of aphid (Myzus persicae) and Aphis gossypiae was assessed using the following two methods.
Batches of 10-15 apterous adults were removed from stock cultures and placed on leaf discs (35 mm in diameter) cut from chinese cabbage and held on an agar bed (25 mm deep) in disposable plastic containers (30 mm high). Using a Burkhard micro-applicator aphids were dosed individually with a 0.25 μm droplet of chemical diluted to the required concentration in acetone. control insects were dosed with acetone only. Mortality and other effects were scored at 24 hour intervals up to and including 72 hour post-treatment, the end-point to which the results relate.
(§4) The test was carried out using a susceptible strain of aphids (US1L) collected in the field in East Anglia, UK and an extremely resistant strain of aphids (794Jz) (R^3 esterase, sensitive ACHE) collected from glasshouses in the UK.
(§5) The values given are % mortality corrected for control data. The control comprised the test solution without active ingredient.

Series [7] has as its system Myzus persicae. Description: Aphicidal activity, aphid-dip. Format: in vivo. The procedure: as §3
(§6) Entrapment rings of fluon were painted halfway up the inside of 4 cm lengths of glass tubing (1.5 cm diameter), and squares of insect-proof gauze were attached to one end of each tube by elastic bands. Fifteen apterous adults were then gently transferred into the tubes using a sable-hair brush, and the tube sealed with a second gauze square.
(§7) Tubes containing aphids were dipped into insecticide solutions for 10 seconds, dried on blotting paper, and then inverted and tapped to cause treated aphids to fall to the unimmersed end of each tube. Handling mortality (usually zero or very slight) was scored after 1 hour, when aphids were transferred onto chinese cabbage leaf-discs (35 mm diameter) on an agar bed (25 mm in depth) in disposible plastic containers (30 mm high) and confined by applying a ring of fluon to the exposed lip of the container. Containers were stored upright, without lids, in a constant environment facility maintained at 25° C. under continuous room lighting. Mortality was assessed at 24, 48 and 72 hours. Two replicates of 15 aphids each were used at each dose rate and 5 or 6 dose rates were used per compound under test.
as §4, §5

Series [8] has as its system Aphis gossypiae. As to the kind of experiment: Aphicidal activity, aphid-dip. The class given is in vivo. Conditions: strain 81-171B, read-out: Aphid-dip result, % kill A.G. 81-171B. The method, then: as §3, §6, §7, §5
The test system of series [9] is Aspergillus niger. The class given is cell-based. Conditions: A. niger.
The test system of series [10] is Pyricularia oryzae (=Magnaporthe grisea). The class given is cell-based. Conditions: P. oryzae, 100 mg 1^-1, 7 days.
Series [11] concerns acarids and fungi. Conditions: cited from earlier work.
Series [12] concerns Tetranychus. The settings on record: Tabelle A of EP 0300218 A1; cited from earlier work.
Series [13] deals with Myzus. Description: Aphicidal activity of comparative compounds (topical or dip not stated). Format: in vivo. The settings on record: prior art t-butyl compound; in the tests set out above; concentration not given. The method, then: as §3
Batches of 10-15 apterous adults were removed from stock cultures and placed on leaf discs (35 mm in diameter) cut from chinese cabbage and held on an agar bed (25 mm deep) in disposable plastic containers (30 mm high). Using a Burkhard micro-applicator aphids were dosed individually with a 0.25 μm droplet of chemical diluted to the required concentration in acetone. control insects were dosed with acetone only. Mortality and other effects were scored at 24 hour intervals up to and including 72 hour post-treatment, the end-point to which the results relate. […]
Tubes containing aphids were dipped into insecticide solutions for 10 seconds, dried on blotting paper, and then inverted and tapped to cause treated aphids to fall to the unimmersed end of each tube. Handling mortality (usually zero or very slight) was scored after 1 hour, when aphids were transferred onto chinese cabbage leaf-discs (35 mm diameter) on an agar bed (25 mm in depth) in disposible plastic containers (30 mm high) and confined by applying a ring of fluon to the exposed lip of the container. […] Mortality was assessed at 24, 48 and 72 hours. […]

Setting [14] is: susceptible strain USIL, read-out: Topical aphid results, % kill M.P. USIL.
[15] abbreviates: resistant strain 794JZ, read-out: Aphid-dip result, % kill M.P. 794JZ.
[16] abbreviates: susceptible strain USIL, read-out: Aphid-dip result, % kill M.P. USIL.
Setting [17] is: 100 mg 1^-1, 4 days at 20-25° C.
Where [18] appears, read: prior art t-butyl compound, tested by the present inventors.

The structures appear in SMILES notation. In brackets after ≈: the same amount, converted by molar mass.

On to `COC(=O)Nc1nc2ccccc2[nH]1` [Carbendazim, carbendazim], for which the “Activity at 1 mg 1^-1 (% inhibition of growth in colony diameter)” value in series [1] (1 mg 1^-1) is listed as 3.3%. The “Activity at 5 mg 1^-1 (% inhibition of growth in colony diameter)” value in series [1] (5 mg 1^-1) was 82.4%.
What is called LC50 is the concentration lethal to half of the exposed cells or organisms. Take `C[Si](C)(C)CCC1=C(O)C(=O)c2ccccc2C1=O` [Example 2, 2-hydroxy-3-(2'-trimethylsilylethyl)-1,4-naphthoquinone]: the “MD (LD50)” value in series [2] is on record as 0.69 μg/insect. The “PC (LD50)” value in [3] turned out to be 0.45 μg/insect. Further, the LC50 worked out at 38 µg/mL (≈ 138 µM) in [4] and 2.6 µg/mL (≈ 9.48 µM) in series [5]. Also, the mortality at 100 ppm in [6] (setting [14]) amounted to 45%; in series [7] (setting [15]) it was 54%; in [7] (setting [16]), 77%; in [8], 63%. In addition, the “Activity at 100 mg 1^-1 (% inhibition of growth in colony diameter)” value is reported as 18% in series [9] (setting [17]), 67% in series [10] and 35% in series [1] (setting [17]).
For the molecule `C[Si](C)(C)CCCCCC1=C(O)C(=O)c2ccccc2C1=O` [Example 3, 2-hydroxy-3(5'-trimethylsilylpentyl)-1,4-naphthoquinone], the “MD (LD50)” value in [2] is given as 1.3 μg/insect. Moreover, the LC50 in [4] worked out at 2.8 µg/mL (≈ 8.85 µM); in [5], 6.8 µg/mL (≈ 21.5 µM). Besides, the mortality at 100 ppm in series [6] (setting [14]), in series [7] (setting [16]) and in series [8] was 100% throughout.
As to `C[Si](C)(C)CCCCCCCC1=C(O)C(=O)c2ccccc2C1=O` [Example 10], in series [2], the “MD (LD50)” value came out at 1.7 μg/insect. Moreover, the LC50 in [4] stood at 0.31 µg/mL (≈ 0.9 µM); in [5], 8.2 µg/mL (≈ 23.8 µM). Also, the mortality at 100 ppm in series [6] (setting [14]), in series [7] (setting [16]) and in [8] was 100% throughout.
With `C[Si](C)(C)CCCCCCCCC1=C(O)C(=O)c2ccccc2C1=O` [Example 11], the “MD (LD50)” value in series [2] worked out at 2.3 μg/insect. The LC50 in series [4] amounted to 0.51 µg/mL (≈ 1.42 µM); in series [5], 14.6 µg/mL (≈ 40.7 µM). Moreover, the mortality at 100 ppm in [6] (resistant strain 794JZ, read-out: Topical aphid results, % kill M.P. 794JZ) was found to be 95%; in [6] (setting [14]) it was 100%; in series [7] (setting [16]), 100%; in series [8], 100%.
On to `C[Si](C)(C)CCCCCCCCCC1=C(O)C(=O)c2ccccc2C1=O` [Example 12, 2-hydroxy-3-(9-trimethylsilylnonyl)-1,4-naphthoquinone], for which, in series [2], the “MD (LD50)” value is reported as 2.8 μg/insect. Moreover, the “PC (LD50)” value in series [3] is given as 0.13 μg/insect. In addition, the results for the 50% lethal concentration (LC50) in series [4] and in series [5] were 0.9 µg/mL (≈ 2.42 µM) and 8.6 µg/mL (≈ 23.1 µM), respectively. In addition, the mortality at 100 ppm in series [6] (setting [14]) stood at 89%; in [7] (setting [15]), 61%; in series [7] (setting [16]), 100%; in series [8] it was 93%.
As to `CCCN(CCOc1c(Cl)cc(Cl)cc1Cl)C(=O)n1ccnc1` [Prochloraz, prochloraz, reference compound], the “Activity at 1 mg 1^-1 (% inhibition of growth in colony diameter)” value in series [9] (1 mg 1^-1) is reported as 97.8%.
With `C[Si](C)(C)C1CCC(C2=C(O)C(=O)c3ccccc3C2=O)CC1` (centres unmarked) [compound of Example 5 (DE 3801743 A1)], the “pesticidal activity relative to other disclosed compounds” value in series [11] (DE 3801743 A1) was “not the most pesticidally active compound”. For the same molecule, the “acaricidal and fungicidal activity” value in series [11] (data in DE 3801743 A1) is “some acaricidal and fungicidal activity”. In addition, in [12], the “activity against Tetranychus relative to tertiary butyl compound” value is given as “less than the corresponding tertiary butyl compound”.
For the molecule `CC(C)(C)C1CCC(C2=C(O)C(=O)c3ccccc3C2=O)CC1` (centres unmarked) [t-butyl compoud, reference compound], the “LD50 against Musca” value in series [2] (setting [18]) is reported as 16 μg/insect. Besides, the “LD50 against Phaedon” value in series [3] (setting [18]) turned out to be 0.53 μg/insect. The “kill against Myzus” value in series [13] is reported as 19%.
